Test results reported in ChEMBL document CHEMBL1287800, “Pyridylmethylthio derivatives as VEGF inhibitors. Part 1” (Bioorg Med Chem Lett, 2010).

Tested on: HUVEC
Experiment: Inhibition of VEGF-induced HUVEC proliferation treated 1 hr before VEGF challenge measured 3 days by WST-8 assay
Assay type: functional, cell-based
Settings: Homo sapiens

For `Clc1ccc(Nc2nnc(Cc3ccncc3)c3ccccc23)cc1` [VATALANIB], the IC50 was 33 nM.
